{"source": "patent US20060287273A1", "about": "“Methods and reagents for inhibiting cell proliferation” (priority 2005, published 2006)", "system": "MDA-MB-435S cells", "assay": "TUNEL assay analyzed by FACS (apoptosis)", "assay_type": "cell-based, human", "conditions": "48 hours post-transfection; staurosporine 1 uM; versus control siRNA", "description": "To examine this possibility, we utilized the TUNEL assay, which measures the appearance of free DNA ends that are the result of DNA fragmentation that occurs in the latter stages of apoptosis. MDA-MB-435S cells in 6 well dishes were transfected with the corresponding siRNA or treated with 1 uM staurosporine. 48 hours post-transfection, any detached cells were combined with cells detached using trypsin and the cells were washed, fixed with paraformaldehyde, subjected to TUNEL assay, and analyzed by FACS. […] Cells to be assayed were trypsinized, washed twice with PBS, followed by fixation for 20 min. in 1.5% paraformaldehyde in PBS at 4° C. with gentle mixing. The cells were then washed twice with PBS, suspended in 70% ethanol at 4° C., and stored at −20° C. until assayed. When assayed, the cells were washed twice with PBS and then resuspended in 50 μl of Tunel assay buffer consisting of 100 mM potassium cacodylate (pH 7.2), 2 mM CoCl2, 0.2 mM dithiotheitol, 3.3 nM fluorescein-conjugated dUTP, 13 nM DATP and 11 units of terminal deoxynucleotidyl transferase for 90 minutes at 37° C. The cells were then washed twice with PBS and analyzed by FACS sorting.", "data": [{"smiles": "CN[C@@H]1C[C@H]2O[C@@](C)([C@@H]1OC)n1c3ccccc3c3c4c(c5c6ccccc6n2c5c31)C(=O)NC4", "note": "[Staurosporine]", "values": [{"measurement": "apoptosis, incorporation of fluorescein-labeled dUTP", "result": "most dramatic increase in apoptotic cells"}]}]}
